# Laboratory results as given in ChEMBL document CHEMBL1201862, “PubChem BioAssay data set” (2004).
# Active and inactive are the calls of the source.
# How the values were obtained:
# [1] = target: Peroxisome proliferator-activated receptor gamma/Nuclear receptor corepressor 2 (Homo sapiens, UniProt P37231+Q9Y618); assay: Counterscreen for NR2E3 inverse agonists: TR-FRET-based biochemical high throughput dose response assay to identify inverse agonists of the interaction between peroxisome proliferator-activated receptor gamma (PPARg) and nuclear receptor co-repressor 2 (NCOR2).; assay type: functional
# Chain of Peroxisome proliferator-activated receptor gamma/Nuclear receptor corepressor 2 (P37231 whole entry): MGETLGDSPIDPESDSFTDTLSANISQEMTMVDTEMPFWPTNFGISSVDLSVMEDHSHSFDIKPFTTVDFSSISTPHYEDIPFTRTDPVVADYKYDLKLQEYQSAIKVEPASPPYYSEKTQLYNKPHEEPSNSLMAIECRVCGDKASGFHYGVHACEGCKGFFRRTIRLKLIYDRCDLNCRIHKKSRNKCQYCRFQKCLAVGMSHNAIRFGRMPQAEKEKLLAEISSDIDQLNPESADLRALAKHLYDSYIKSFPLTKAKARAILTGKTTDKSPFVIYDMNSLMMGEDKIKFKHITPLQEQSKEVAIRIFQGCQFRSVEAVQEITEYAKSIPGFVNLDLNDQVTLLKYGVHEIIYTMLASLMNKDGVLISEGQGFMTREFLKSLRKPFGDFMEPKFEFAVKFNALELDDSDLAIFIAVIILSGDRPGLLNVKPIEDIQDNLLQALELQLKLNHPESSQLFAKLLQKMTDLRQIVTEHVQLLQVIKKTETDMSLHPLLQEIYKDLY
# Chain of Peroxisome proliferator-activated receptor gamma/Nuclear receptor corepressor 2 (Q9Y618 whole entry): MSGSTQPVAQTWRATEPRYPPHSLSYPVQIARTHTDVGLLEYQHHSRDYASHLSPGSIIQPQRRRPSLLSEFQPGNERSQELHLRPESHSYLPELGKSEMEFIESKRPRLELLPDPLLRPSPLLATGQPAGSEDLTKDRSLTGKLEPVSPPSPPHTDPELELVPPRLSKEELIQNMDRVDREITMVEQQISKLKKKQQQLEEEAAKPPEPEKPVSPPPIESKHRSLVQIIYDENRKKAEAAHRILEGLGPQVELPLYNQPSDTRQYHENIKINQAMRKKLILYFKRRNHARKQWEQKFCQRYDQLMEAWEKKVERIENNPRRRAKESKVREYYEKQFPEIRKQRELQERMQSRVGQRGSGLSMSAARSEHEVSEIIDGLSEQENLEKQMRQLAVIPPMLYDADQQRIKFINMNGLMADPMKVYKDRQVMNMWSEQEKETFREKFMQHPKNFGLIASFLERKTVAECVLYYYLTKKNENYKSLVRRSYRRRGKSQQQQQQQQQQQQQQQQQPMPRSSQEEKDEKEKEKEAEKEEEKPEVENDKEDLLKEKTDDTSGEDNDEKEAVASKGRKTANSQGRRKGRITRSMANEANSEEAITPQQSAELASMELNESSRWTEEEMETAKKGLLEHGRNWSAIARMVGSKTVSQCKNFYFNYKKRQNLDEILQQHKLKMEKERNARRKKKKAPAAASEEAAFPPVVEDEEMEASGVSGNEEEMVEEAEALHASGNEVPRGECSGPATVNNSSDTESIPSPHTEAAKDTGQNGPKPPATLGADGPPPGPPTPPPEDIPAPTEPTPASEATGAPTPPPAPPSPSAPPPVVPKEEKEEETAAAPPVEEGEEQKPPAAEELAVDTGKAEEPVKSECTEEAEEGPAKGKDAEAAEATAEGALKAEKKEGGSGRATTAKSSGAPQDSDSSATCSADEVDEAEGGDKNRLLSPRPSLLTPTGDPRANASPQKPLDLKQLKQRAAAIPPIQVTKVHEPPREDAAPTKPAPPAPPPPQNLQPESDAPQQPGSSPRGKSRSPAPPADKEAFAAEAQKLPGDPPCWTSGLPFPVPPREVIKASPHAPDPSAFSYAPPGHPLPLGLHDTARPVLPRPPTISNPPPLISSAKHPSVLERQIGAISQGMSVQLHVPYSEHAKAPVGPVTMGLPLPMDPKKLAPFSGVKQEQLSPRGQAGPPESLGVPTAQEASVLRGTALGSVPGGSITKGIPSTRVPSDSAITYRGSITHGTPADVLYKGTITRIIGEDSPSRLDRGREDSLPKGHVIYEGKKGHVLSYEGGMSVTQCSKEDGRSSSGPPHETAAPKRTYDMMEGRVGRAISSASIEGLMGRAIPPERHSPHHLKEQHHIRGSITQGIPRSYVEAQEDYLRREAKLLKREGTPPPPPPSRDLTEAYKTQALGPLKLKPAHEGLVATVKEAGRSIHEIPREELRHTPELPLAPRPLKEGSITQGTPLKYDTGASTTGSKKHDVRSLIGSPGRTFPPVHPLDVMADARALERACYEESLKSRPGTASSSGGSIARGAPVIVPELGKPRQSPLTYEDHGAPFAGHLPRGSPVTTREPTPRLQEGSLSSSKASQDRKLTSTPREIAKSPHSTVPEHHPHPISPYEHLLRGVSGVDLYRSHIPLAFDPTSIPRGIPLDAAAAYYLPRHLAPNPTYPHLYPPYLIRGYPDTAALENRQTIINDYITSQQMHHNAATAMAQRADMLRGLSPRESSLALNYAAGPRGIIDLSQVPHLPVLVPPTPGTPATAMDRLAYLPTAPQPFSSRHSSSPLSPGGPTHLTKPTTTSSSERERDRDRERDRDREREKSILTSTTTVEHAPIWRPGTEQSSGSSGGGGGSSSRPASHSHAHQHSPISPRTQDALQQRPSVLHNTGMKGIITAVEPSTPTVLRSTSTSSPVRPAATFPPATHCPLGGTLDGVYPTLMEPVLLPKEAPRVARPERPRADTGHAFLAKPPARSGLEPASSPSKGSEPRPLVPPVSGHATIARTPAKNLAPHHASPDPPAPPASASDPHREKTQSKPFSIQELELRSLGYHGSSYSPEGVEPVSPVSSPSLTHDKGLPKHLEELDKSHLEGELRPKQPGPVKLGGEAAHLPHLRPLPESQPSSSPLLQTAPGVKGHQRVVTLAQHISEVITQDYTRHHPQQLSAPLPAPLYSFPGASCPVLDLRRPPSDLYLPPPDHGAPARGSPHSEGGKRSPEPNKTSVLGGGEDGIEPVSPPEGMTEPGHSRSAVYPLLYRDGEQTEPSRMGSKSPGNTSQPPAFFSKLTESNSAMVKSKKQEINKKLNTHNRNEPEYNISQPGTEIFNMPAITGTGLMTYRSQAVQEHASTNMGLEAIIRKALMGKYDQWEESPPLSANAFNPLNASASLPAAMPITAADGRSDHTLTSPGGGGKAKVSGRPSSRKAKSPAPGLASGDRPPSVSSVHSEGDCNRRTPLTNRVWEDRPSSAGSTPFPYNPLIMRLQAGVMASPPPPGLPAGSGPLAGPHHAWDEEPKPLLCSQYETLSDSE
# [2] = target: T1, Sentrin-specific protease 8 (Homo sapiens, UniProt Q96LD8); assay: SENP8 protease inhibitors, SAR follow-up, biochemical, luminescence (AID 504501); assay type: functional
# T1 sequence (Q96LD8 whole entry): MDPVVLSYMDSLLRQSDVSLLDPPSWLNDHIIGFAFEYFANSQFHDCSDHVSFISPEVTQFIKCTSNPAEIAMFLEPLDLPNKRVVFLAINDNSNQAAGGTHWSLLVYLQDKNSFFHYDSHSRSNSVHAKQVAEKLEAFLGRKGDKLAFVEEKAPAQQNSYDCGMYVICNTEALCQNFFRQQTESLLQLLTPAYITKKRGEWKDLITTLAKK
# [3] = growth suppression of beta-catenin-knockout colon cells, dose response, cell-based, HCT116, human colon tumor (AID 1045); assay type: functional;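 further: HCT116 colon tumor cells with beta catenin knocked out; cells exposed to compound for 60 hours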
# [4] = target: T2, Sentrin-specific protease 6 (Homo sapiens, UniProt Q9GZR1); assay: SAR Analysis of small molecule inhibitors of Sentrin-specific protease 6 (SENP6) using a Luminescent assay. [Related pubchem assays (depositor defined):AID2582, AID2599]; assay type: functional
# T2 sequence (Q9GZR1 whole entry): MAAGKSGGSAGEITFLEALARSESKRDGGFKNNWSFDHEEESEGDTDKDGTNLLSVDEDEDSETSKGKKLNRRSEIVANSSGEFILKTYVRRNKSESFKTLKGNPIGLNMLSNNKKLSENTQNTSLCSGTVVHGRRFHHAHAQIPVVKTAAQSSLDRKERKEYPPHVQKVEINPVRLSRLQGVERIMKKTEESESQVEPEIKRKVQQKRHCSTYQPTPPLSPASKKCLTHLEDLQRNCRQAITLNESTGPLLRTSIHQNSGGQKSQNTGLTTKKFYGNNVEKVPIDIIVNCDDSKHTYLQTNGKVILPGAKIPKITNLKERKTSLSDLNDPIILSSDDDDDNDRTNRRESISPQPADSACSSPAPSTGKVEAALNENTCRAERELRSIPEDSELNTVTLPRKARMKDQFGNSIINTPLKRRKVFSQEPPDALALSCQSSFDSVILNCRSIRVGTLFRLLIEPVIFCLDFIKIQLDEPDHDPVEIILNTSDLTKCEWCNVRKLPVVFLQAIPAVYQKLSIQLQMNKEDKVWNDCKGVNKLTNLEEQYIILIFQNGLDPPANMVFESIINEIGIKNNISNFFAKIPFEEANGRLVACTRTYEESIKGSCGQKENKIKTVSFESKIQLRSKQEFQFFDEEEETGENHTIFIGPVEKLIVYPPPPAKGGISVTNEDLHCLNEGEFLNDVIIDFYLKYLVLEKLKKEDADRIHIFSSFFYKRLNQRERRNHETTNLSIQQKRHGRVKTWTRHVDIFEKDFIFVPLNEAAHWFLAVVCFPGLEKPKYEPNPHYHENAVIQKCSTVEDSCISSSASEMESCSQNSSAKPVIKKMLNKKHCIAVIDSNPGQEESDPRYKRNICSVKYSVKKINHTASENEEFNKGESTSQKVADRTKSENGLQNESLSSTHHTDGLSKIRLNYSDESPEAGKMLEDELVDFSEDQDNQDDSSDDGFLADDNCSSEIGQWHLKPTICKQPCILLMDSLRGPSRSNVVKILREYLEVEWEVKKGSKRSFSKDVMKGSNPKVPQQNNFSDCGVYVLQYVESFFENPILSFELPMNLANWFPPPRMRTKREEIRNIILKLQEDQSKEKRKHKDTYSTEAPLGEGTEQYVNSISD
# [5] = growth suppression of PTEN-null colon cells, dose response, cell-based, HCT116 PTEN knockout (AID 1047); assay type: functional;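 further: HCT116 colon tumor cells with PTEN knocked out; cells exposed to compound for 60 hours before readout; potency for loss of cell viability measured by luminescence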
# [6] = target: Photoreceptor-specific nuclear receptor (Homo sapiens, UniProt Q9Y5X4); assay: NR2E3 inverse agonists, dose response, biochemical, TR-FRET (AID 463256); assay type: functional
# Chain of Photoreceptor-specific nuclear receptor (Q9Y5X4 whole entry): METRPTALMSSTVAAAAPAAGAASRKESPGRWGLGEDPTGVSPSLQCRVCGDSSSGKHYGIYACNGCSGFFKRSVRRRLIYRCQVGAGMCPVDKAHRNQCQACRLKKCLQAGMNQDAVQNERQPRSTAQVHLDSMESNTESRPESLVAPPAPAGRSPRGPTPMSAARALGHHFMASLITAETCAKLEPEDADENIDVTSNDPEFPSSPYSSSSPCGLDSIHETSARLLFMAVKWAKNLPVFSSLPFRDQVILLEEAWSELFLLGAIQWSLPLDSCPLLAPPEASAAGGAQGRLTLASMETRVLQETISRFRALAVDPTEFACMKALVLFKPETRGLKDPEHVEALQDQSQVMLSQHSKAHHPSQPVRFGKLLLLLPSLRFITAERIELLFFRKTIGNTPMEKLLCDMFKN
# [7] = target: T3, Sentrin-specific protease 7 (Homo sapiens, UniProt Q9BQF6); assay type: functional;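 further: Luminescence-based dose-response confirmation of ultra-high-throughput screening hits, measuring inhibition of SENP7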
# T3 sequence (Q9BQF6 whole entry): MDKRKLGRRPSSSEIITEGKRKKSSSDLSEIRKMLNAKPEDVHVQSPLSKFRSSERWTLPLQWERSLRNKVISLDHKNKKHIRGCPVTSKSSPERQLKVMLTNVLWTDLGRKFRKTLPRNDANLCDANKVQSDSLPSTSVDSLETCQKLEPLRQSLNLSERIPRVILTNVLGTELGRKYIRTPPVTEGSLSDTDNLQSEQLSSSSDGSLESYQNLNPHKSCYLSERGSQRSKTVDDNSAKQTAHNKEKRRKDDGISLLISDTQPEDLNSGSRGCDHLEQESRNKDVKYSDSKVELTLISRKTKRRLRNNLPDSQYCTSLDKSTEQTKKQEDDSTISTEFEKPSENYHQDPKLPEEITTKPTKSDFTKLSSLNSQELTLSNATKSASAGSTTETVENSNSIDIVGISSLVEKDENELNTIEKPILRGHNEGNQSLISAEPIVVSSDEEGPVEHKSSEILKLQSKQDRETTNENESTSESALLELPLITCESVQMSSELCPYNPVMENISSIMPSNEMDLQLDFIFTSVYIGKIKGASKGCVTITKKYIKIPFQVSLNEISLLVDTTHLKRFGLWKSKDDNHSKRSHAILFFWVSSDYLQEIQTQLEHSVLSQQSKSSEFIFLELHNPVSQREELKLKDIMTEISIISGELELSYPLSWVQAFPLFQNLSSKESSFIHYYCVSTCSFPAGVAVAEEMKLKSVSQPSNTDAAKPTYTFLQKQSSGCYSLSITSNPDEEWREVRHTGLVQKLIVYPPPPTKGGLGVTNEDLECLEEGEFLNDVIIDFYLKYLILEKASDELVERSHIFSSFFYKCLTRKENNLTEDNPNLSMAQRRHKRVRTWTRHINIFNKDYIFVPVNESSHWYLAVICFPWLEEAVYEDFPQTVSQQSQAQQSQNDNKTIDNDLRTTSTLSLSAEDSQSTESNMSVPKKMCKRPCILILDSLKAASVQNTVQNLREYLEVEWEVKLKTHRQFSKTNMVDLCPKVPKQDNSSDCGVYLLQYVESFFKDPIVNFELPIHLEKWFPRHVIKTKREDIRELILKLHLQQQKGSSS
# [8] = target: T2, Sentrin-specific protease 6; assay type: functional
# [9] = target: T4, Caspase-3 (Homo sapiens, UniProt P42574); assay: SAR Analysis of small molecule inhibitors of Sentrin-specific proteases (SENPs) using a Caspase-3 Selectivity assay. [Related pubchem assays (depositor defined):AID2540, AID2599, AID434973, AID489001]; assay type: functional
# T4 sequence (P42574 whole entry): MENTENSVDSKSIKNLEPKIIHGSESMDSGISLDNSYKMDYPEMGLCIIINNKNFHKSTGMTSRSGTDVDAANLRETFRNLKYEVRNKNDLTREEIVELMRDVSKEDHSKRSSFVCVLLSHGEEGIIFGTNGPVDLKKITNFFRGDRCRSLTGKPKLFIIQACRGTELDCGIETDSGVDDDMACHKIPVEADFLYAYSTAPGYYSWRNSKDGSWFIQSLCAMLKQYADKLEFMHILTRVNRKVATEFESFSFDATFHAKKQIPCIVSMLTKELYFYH
# [10] = target: T4, Caspase-3; assay type: functional
# [11] = target: T1, Sentrin-specific protease 8; assay type: functional
# [12] = target: T3, Sentrin-specific protease 7; assay: SENP7 protease inhibitors, SAR follow-up, biochemical, luminescence (AID 504497); assay type: functional
# [13] = tested on: H4; assay: Luminescence Cell-Based Dose Response HTS to Identify Activators of 5'UTR Stem-Loop Driven Prion Protein mRNA Translation in H4 Neuroglioblastoma Cells. [Related pubchem assays: 1829 (Project Summary), 1814 (Primary HTS)]; assay type: functional; conditions: Homo sapiens
# [14] = Luminescence Cell-Based Dose Response to Identify Activators of 5'UTR Stem-Loop Driven Prion Protein mRNA Translation in H4-C Neuroglioblastoma Cells. [Related pubchem assays: 1829 (Project Summary), 1814 (Primary HTS)]; assay type: functional
# [15] = target: T5, Long-chain-fatty-acid--AMP ligase FadD28 (Mycobacterium tuberculosis, UniProt P9WQ59); assay: Fluorescence polarization aasay to screen for inhibitors that compete for the binding of FadD28 to a bisubstrate Measured in Biochemical System Using Plate Reader - 2147-01_Inhibitor_Dose_CherryPick_Activity.; assay type: functional, Mycobacterium tuberculosis H37Rv
# T5 sequence (P9WQ59 whole entry): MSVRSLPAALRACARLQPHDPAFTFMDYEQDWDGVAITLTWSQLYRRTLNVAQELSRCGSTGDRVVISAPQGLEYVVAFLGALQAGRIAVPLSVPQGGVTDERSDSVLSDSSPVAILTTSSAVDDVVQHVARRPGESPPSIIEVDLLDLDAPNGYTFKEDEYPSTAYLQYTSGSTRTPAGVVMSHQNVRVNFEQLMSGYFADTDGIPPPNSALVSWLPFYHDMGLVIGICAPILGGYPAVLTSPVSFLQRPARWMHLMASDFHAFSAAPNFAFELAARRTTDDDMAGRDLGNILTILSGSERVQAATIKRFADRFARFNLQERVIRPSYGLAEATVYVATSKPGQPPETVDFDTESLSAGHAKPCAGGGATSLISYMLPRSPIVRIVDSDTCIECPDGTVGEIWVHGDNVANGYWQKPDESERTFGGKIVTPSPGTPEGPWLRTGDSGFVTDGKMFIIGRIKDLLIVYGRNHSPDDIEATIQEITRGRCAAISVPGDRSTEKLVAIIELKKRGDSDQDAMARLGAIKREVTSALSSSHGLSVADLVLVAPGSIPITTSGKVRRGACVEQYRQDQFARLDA
# [16] = Luminescence Cell-Based Dose Response to Identify Activators of Luciferase Translation or Activity in H4-C Neuroglioblastoma Cells. [Related pubchem assays: 1829 (Project Summary), 1814 (Primary HTS)]; assay type: functional
# [17] = Luminescence Cell-Based Dose Confirmation to Identify Activators of 5'UTR Stem-Loop Driven Alpha-Synuclein mRNA Translation in H4 Neuroglioblastoma Cells. [Related pubchem assays: 1829 (Project Summary), 1814 (Primary HTS)]; assay type: functional
# [18] = Luminescence Cell-Based Dose Response HTS to Identify Activators of Luciferase Translation or Activity in H4 […] Cells. [Related pubchem assays: 1829 (Project Summary), 1814 (Primary HTS)]; assay type: functional
# [19] = cytotoxicity in HPDE-C7 cells, cell-based, fluorescence, HTS (AID 430); assay type: functional; conditions: Homo sapiens
# [20] = cytotoxicity in KRAS-transformed pancreatic duct cells, primary screen, cell-based, fluorescence, HTS (AID 431); assay type: functional; conditions: Homo sapiens;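 further: cell line used: HPDE-C7K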
compound,measurement,setting,value
Cc1cc2nc(-c3ccc(SCC(=O)Nc4ccc(S(=O)(=O)NC5CC5)cc4)nc3)[nH]c2cc1C,IC50,[1],4.15 µM (active)
same,IC50,[2],> 99 µM (inactive)
same,EC50,[3],24.7 µM (active)
same,IC50,[4],> 99 µM (inactive)
same,EC50,[5],22.7 µM (active)
same,IC50,[6],> 39.8 µM (not active)
same,IC50,[7],2.43 µM (active)
same,IC50,[8],> 100 µM (inactive)
same,IC50,[9],14.4 µM (active)
same,IC50,[10],21.3 µM (active)
same,IC50,[11],> 100 µM (inactive)
same,IC50,[12],2.75 µM (active)
O=C(O)c1ccc(N/N=C/C(Br)=C/c2ccccc2)cc1,EC50,[13],7.2 µM (active)
same,EC50,[14],316 nM (active)
same,AC50,[15],> 100 µM (inactive)
same,EC50,[16],368 nM (active)
same,EC50,[17],425 nM (active)
same,EC50,[18],< 100 nM (active)
Cc1cc(C(=O)Nc2sc3c(c2C#N)CCC(C)C3)cs1 (stereo not given),EC50,[19],> 20 µM (not active)
same,EC50,[20],> 20 µM (not active)
